For series [1] the following is noted: Crystal; DTA.
The nature of series [2]: Molar enthalpy of transition or fusion. The conditions noted are these: Crystal; DSC.

Numbers after ± are expanded uncertainties.

In the case of `O=c1c(-c2ccc(O)cc2)coc2cc(O)ccc12` [daidzein], in series [1], the Normal melting temperature came to 315.67 ± 0.5 °C. In series [2], the “Molar enthalpy of transition or fusion” value came out at 8.38 ± 0.234 kcal/mol.

These data come from the NIST ThermoML archive (doi:10.1016/j.fluid.2013.12.024).
